Measurements reported in patent publication US11759430B2, “Active substance carrier comprising biopolymer” (AMOREPACIFIC CORPORATION, priority 2019, dated 2023).

System: stratum corneum of the cultured artificial skin (human epidermal keratinocytes)
Test: Test Example 2: transdermal penetration of hydrophobic fluorescent dye (Nile red) into artificial skin
Assay type: in vitro ADME
Settings: after a night, stratum corneum average thickness 10.73 μm, FIG. 7
Description: The following experiment was conducted in order to investigate whether the core-shell network structure according to an exemplary embodiment of the present disclosure serves as a carrier facilitating the transdermal absorption of an active substance.
First, a core-shell network solution (Example 3) was prepared in the same manner as in Example 2 except that, instead of the red ginseng saponin as the active substance, a hydrophobic fluorescent dye (Nile red, Sigma-Aldrich) was encapsulated at a concentration of […]. The contents of zein, pullulan and pectin of Example 3 based on the total weight of the composition were 0.01 wt %, 0.02 wt % and 0.002 wt %, respectively. […]
The cells were exposed to the air by removing the medium except for the part occupied by the cells. […] After freezing using an OCT (Cryomatrix, Thermo Scientific) and slicing to a thickness of 10 μm, the frozen sections were imaged with a fluorescence microscope (BX53, Olympus, Japan) and a microscopic digital camera (DP72, Olympus, Japan). […] To compare the effect of the present disclosure, the stratum corneum of the skin was treated only with a hydrophobic fluorescent dye in Comparative Example 3, and the degree of penetration of the hydrophobic fluorescent dye was analyzed in the same manner.

penetration depth of the dye into the stratum corneum, on average: about 3.62 μm
Structure (SMILES): CCN(CC)c1ccc2nc3c4ccccc4c(=O)cc-3oc2c1 [Comparative Example 3, Nile red]
